Source: PMC5794198, “Inhibitors of Trypanosoma cruzi Sir2 related protein 1 as potential drugs against Chagas disease” (PLoS Neglected Tropical Diseases, 2018)

Assays:
Hepatocytes = experiment: HCS injury score panel in primary hepatocytes; type: cell-based
Method: In vitro assays were also performed in primary cells (hepatocytes and neurons) to evaluate BNIPSpd (9) potential toxicity: (a) host cell nuclei counting after HOECHST staining, (b) viability by measuring the metabolism of WST-8 probe, (c) apoptosis induction through caspase 3/7 activation, (d) evaluation of mitochondrial dysfunction by measuring the membrane potential using TMRM probe, (e) membrane integrity by measuring the extracellular LDH, (f) DNA damage by histone H2AX phosphorylation (exclusively in hepatocytes) and (g) imaging of neurite outgrowth (exclusively in neurons).
The assays were performed 24 hrs after cell collection and isolation. […] Then, absorbance at 450 nm was measured in order to analyse cell viability (WST-8). Cells were washed three times and analysed using the automatic fluorescence microscope BD Pathway 855. […] Data were analysed with AttoVision (Becton Dickinson). […] LDH release was measured in mU/L in culture media obtained from cells subjected to treatments for 24 hrs, by measuring the released LDH rate of oxidation of NADH to NAD^+ at 340 nm using Synergy 2 from BioTech.
DNA damage was evaluated by washing cells with PBS and fixation using paraformaldehyde 3% in PBS for 15 mins. […] To determine the DNA damage, intensity in the nuclei was analyzed using AttoVision software (Becton Dickinson). […]

[1] = C2C12 host cell cytotoxicity (cell ratio) in HCS assay; type: cell-based, Mouse; conditions: mouse, cell ratio, 72 h; read-out: C2C12 Cytotoxicity (CC50 ± SD)
Method: (§1) For the evaluation of the activity against T. cruzi amastigotes, high-content screening (HCS) was designed. In summary, 100 μL of host C2C12 cells (ATCC) were seeded in clear bottom black 96-well plates at a density of 2.5 x 10^4 cells/mL (2.5 × 10^3 cells/well). […] The parasites were allowed to infect for a 24 hr period, after which compounds were added in a volume of 50 μL. […] After 72 hrs of compound incubation, the wells were fixed with 4% paraformaldehyde for 15 to 30 mins. The plates were then washed once with deionized water and stained with a solution of DAPI (3 μM) for 1 hour. Plates were imaged in an INCell 2000 (GE Healthcare) high-content analyser by taking 16 pictures per well at 20 X objective amplification. Images were analysed with INCell Developer software (GE Healthcare) using the segmentation of host cell nuclei and parasite kinetoplast DNA. The measurement output used was the average number of parasites per cell calculated by the ratio of host cell nuclei/parasite kinetoplast DNA.

C2C12 cells = experiment: as above; type: cell-based, Mouse; conditions: CC50 cell line (C2C12)/EC50 T. cruzi
Method: as §1

Q: For `O=C1c2cccc3cccc(c23)C(=O)N1CCCNCCCCNCCCNCCCN1C(=O)c2cccc3cccc(c23)C1=O` [Compound 9, BNIP Spermidine], which “Injury score for hepatocytes” value (Hepatocytes; at 50 μM) is on record?
A: Its value is “low injury (low injury (1 to <5))”.

Q: What about the “Injury score for hepatocytes” value (Hepatocytes; combined score of cytotoxicity panel, 24 hrs) of the same compound?
A: Its value is “low injury (low injury (1 to <5))”.

Q: And the CC50 at 72 h [1]?
A: The CC50 at 72 h was 24.5 ± 0.45 µM.

Q: What about the “Selectivity Index” value (C2C12 cells) of the same compound?
A: Its value is 8.8.
